This is an account of results in patent publication US6872805B2 (Bristol-Myers Squibb Company, priority 2000, dated 2005).

The experiment relates to HCV replicon in Huh7 cells. Kind of experiment: HCV replicon cell-based assay. Also on record: species or system HCV strain 1B. The settings on record: Hepatitis C virus, HCV replicon, Huh7 cells. The method in brief:
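Genotype 1b subgenomic replicon Huh7 cells exposed to compound 4 days at 37° C in 4% FCS, 0.5% DMSO medium. EC50 from TaqMan RT-PCR of HCV RNA, normalized to total RNA by RiboGreen; CC50 from alamar Blue fluorescence after 4 h.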

pEC50: −log10 of the molar value. Read-outs that look alike come from different tables or passages of the source.

`C=CC1C[C@]1(NC(=O)[C@@H]1C[C@@H](Oc2cc(-c3ccccc3)nc3cc(OC)ccc23)CN1C(=O)C(NC(=O)OC(C)(C)C)C(C)(C)C)C(=O)NS(=O)(=O)c1ccc(NC(C)=O)cc1` (some centres unmarked) [Compound 58]: the negative logarithm of the EC50 (pEC50) (Huh-7, 96 h, 4 days, activity ranges, read-out: EC50) is more than 6.30 and the negative-log EC50 (pEC50) (Huh-7, read-out: EC50 value in the replicon assay) was 6.60.
